Key:
[1] = molecular target: T1, purified recombinant human caspase-3 (Homo sapiens, UniProt P42574); experiment: Caspase inhibitor titration by [125I]-M808 labeling of purified recombinant human caspase-3 (SDS-PAGE); format: binding
T1 construct: Active site shared between large and small caspase subunit
T1 sequence (P42574 29-175 limits assumed): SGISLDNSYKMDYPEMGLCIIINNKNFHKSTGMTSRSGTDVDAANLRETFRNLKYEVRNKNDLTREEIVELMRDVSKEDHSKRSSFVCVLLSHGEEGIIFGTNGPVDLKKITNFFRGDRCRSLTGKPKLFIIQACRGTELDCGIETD
T1 sequence (P42574 176-277 limits assumed): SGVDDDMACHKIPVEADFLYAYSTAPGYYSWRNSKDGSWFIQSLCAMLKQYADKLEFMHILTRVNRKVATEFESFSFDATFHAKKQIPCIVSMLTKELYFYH
Method: (§1) FIG. 3. Potency assessment caspase inhibitors by [^125]-M808 labeling and by DEVD-AMC cleavage activity. A, B-Caspase inhibitor titration and [^125]-M808 labeling with purified recombinant human caspase-3. A-M791 with 5 minute labeling reaction and M791 with 60 minute labeling reaction. In A, the indicated IC50 was defined as the concentration of M791 that reduced the intensity of [^125I]-M808-labeled p17 subunit of caspase-3 by 50%. B-Caspase inhibitor titration and DEVD-AMC cleavage activity with recombinant human caspase-3 that had been incubated with indicated concentration of M791. Under the fluorogenic assay conditions Ki=IC50/2.
The determination of caspase activity by [^125I]-M808 labeling was performed by pre-incubating purified recombinant human caspase-3 with indicated amounts of caspase inhibitor (M791) or vehicle (DMSO), for 1 hour at 25° C. in ICE buffer III (50 mM Hepes-KOH pH 7.0, 0.1% CHAPS, 10% sucrose, 2 mM EDTA), supplemented with 5 mM DTT. [^125I]-M808 was added to a final concentration of 1.25 μM and incubated for 5 min at 25° C. Active caspases in tissue or cell extracts were labeled by incubating 60-80 μg of lysate with [^125I]-M808 for 15 minutes at 25° C. Labeling was stopped by addition of Laemli buffer (2% SDS; 0.35 M O-mercaptoethanol; 50 mM Tris-Cl pH 6.8; 10% glycerol; 0.05% bromophenol blue) and by heating at 95° C. for 5 minutes. […]

[2] = molecular target: T1, purified recombinant human caspase-3; experiment: DEVD-AMC cleavage activity with recombinant human caspase-3 pre-incubated with inhibitor; format: biochemical; settings: purified recombinant caspase-3 pre-incubated with increasing amounts of M791
Method: as §1
Tissues (rat liver, kidney, brain, thymus, mouse thymus) were either frozen or processed within 20 minutes of their removal. Rat tissues and cultured cells were homogenized in ice cold cell lysis buffer (50 mM Tris-Cl pH 7.5, 2 mM EDTA, 1% NP-40) supplemented with 5 mM DTT and Complete protease inhibitor cocktail (Roche). Thymi from mice injected with [^125I]-M808 were homogenized in lysis buffer supplemented with 25 μM of M808. Nuclear debris was removed by centrifugation at 13000 rpm for 10 min and the soluble fraction quantitated by Bradford assay (Bio-Rad). Caspase-3 like activity was determined with the fluorogenic substrate Ac-DEVD-AMC as described by Roy et al. (2001) Proc. Nat. Acad. Sci. USA 98: 6132-6137. […]

COc1ccc(-c2nc(C)no2)cc1CC(=O)N[C@H](C(=O)N[C@@H](CC(=O)O)C(=O)CSCc1ccccc1)C(C)C [Example M791, (3S)-5-(benzylthio)-3-[(N-{[2-methoxy-5-(3-methyl-1,2,4-oxadiazol-5-yl)phenyl]acetyl}-L-valyl)amino]4-oxopentanoic acid]
IC50 ([1]; [125I]-M808 added for 5 minutes, read-out: IC50 by [125I]-M808 labeling (50% reduction of labeled p17 subunit)): 0.45 nM | IC50 ([1]; incubating with [125I]-M808 for 60 minutes instead of 5, read-out: apparent IC50 by [125I]-M808 labeling): 1 nM | IC50 [2]: 0.6 nM
